In patent US8916702B2 (priority 2012, dated 2014):

Test system: HCV pseudoparticles (genotype 1a HCV E1 and E2 envelope, H77C isolate)
Experiment: microbe, parasite or virus in culture
Format: cell-based
Conditions: Hepatitis C virus, Huh-7, 48 h, HCV pseudoparticles (genotype 1a, H77C) in Huh7 cells; average of duplicate; luciferase 2 days after infection

Row | SMILES | EC50 [nM]
1 | CC(C)(CNC(=O)c1ccc(Nc2nc(NC3(c4ccc(Cl)cc4)CC3)nc(OCC(F)(F)F)n2)cc1)NC(=O)C(=O)Nc1ccccc1 [Compound 3425] | 0.033
2 | CN(CCCN(C)C(=O)c1ccc(Nc2nc(NC3(c4ccc(Cl)cc4)CC3)nc(OCC(F)(F)F)n2)cc1)C(=O)C(=O)Nc1nccs1 [Compound 3430] | 1.45
3 | CC(C)(CNC(=O)c1ccc(Nc2nc(NC3(c4ccc(Cl)cc4)CC3)nc(OCC(F)(F)F)n2)cc1)NC(=O)C(=O)NC1CCCCC1 [Compound 3436] | 0.081
4 | Cc1ccc(NC(=O)C(=O)N(C)CCCNC(=O)c2ccc(Nc3nc(NC4(c5ccc(Cl)cc5)CC4)nc(OCC(F)(F)F)n3)cc2)cc1 [Compound 3445] | 0.061
5 | CN(CCCNC(=O)c1ccc(Nc2nc(NC3(c4ccc(Cl)cc4)CC3)nc(OCC(F)(F)F)n2)cc1)C(=O)C(=O)Nc1ccc(F)cc1 [Compound 3448] | 0.059
6 | O=C(NCC(O)CNC(=O)c1ccc(Nc2nc(NC3(c4ccc(Cl)cc4)CC3)nc(OCC(F)(F)F)n2)cc1)C(=O)Nc1ccccc1 (stereo not drawn) [Compound 3460] | 0.016
7 | O=C(NCC(O)CNC(=O)c1ccc(Nc2nc(NC3(c4ccc(Cl)cc4)CC3)nc(OCC(F)(F)F)n2)cc1)C(=O)Nc1cc(F)cc(F)c1 (stereo not drawn) [Compound 3461] | 0.027

Same assay, conditions: Hepatitis C virus, Huh-7, read-out: Activity (EC50 class), HCV pseudoparticles (genotype 1a, H77C) in Huh7 cells; EC50 expressed as class A/B

Row | SMILES | EC50 [nM]
8 | CC(C)(CNC(=O)c1ccc(Nc2nc(NC3(c4ccc(Cl)cc4)CC3)nc(OCC(F)(F)F)n2)cc1)NC(=O)C(=O)NCc1ccc(F)cc1 [Compound 3419] | 0.01 to 10
9 | CC(C)(CNC(=O)c1ccc(Nc2nc(NC3(c4ccc(Cl)cc4)CC3)nc(OCC(F)(F)F)n2)cc1)NC(=O)C(N)=O [Compound 3420] | 0.01 to 10
10 | CC(C)(CNC(=O)c1ccc(Nc2nc(NC3(c4ccc(Cl)cc4)CC3)nc(OCC(F)(F)F)n2)cc1)NC(=O)C(=O)Nc1cccc(F)c1 [Compound 3421] | 0.01 to 10
11 | Cc1cc(NC(=O)C(=O)NC(C)(C)CNC(=O)c2ccc(Nc3nc(NC4(c5ccc(Cl)cc5)CC4)nc(OCC(F)(F)F)n3)cc2)no1 [Compound 3422] | 0.01 to 10
12 | Cc1cc(NC(=O)C(=O)N(C)CCCN(C)C(=O)c2ccc(Nc3nc(NC4(c5ccc(Cl)cc5)CC4)nc(OCC(F)(F)F)n3)cc2)no1 [Compound 3423] | 0.01 to 10
13 | CC(C)(CNC(=O)c1ccc(Nc2nc(NC3(c4ccc(Cl)cc4)CC3)nc(OCC(F)(F)F)n2)cc1)NC(=O)C(=O)Nc1cc(F)cc(F)c1 [Compound 3424] | 0.01 to 10
14 | CC(C)(CNC(=O)c1ccc(Nc2nc(NC3(c4ccc(Cl)cc4)CC3)nc(OCC(F)(F)F)n2)cc1)NC(=O)C(=O)Nc1ccccc1 [Compound 3425] | 0.01 to 10
15 | CN(CCCN(C)C(=O)c1ccc(Nc2nc(NC3(c4ccc(Cl)cc4)CC3)nc(OCC(F)(F)F)n2)cc1)C(=O)C(=O)Nc1ccc(F)cc1F [Compound 3426] | 0.01 to 10
16 | CN(CCCN(C)C(=O)c1ccc(Nc2nc(NC3(c4ccc(Cl)cc4)CC3)nc(OCC(F)(F)F)n2)cc1)C(=O)C(=O)Nc1cc(F)cc(F)c1 [Compound 3427] | 0.01 to 10
17 | CN(CCCN(C)C(=O)c1ccc(Nc2nc(NC3(c4ccc(Cl)cc4)CC3)nc(OCC(F)(F)F)n2)cc1)C(=O)C(=O)Nc1ccccc1 [Compound 3428] | 0.01 to 10
18 | CN(CCCN(C)C(=O)c1ccc(Nc2nc(NC3(c4ccc(Cl)cc4)CC3)nc(OCC(F)(F)F)n2)cc1)C(=O)C(=O)NC1CCCCC1 [Compound 3429] | 0.01 to 10
19 | CN(CCCN(C)C(=O)c1ccc(Nc2nc(NC3(c4ccc(Cl)cc4)CC3)nc(OCC(F)(F)F)n2)cc1)C(=O)C(=O)Nc1nccs1 [Compound 3430] | 0.01 to 10
20 | CC(C)CNC(=O)C(=O)N(C)CCCN(C)C(=O)c1ccc(Nc2nc(NC3(c4ccc(Cl)cc4)CC3)nc(OCC(F)(F)F)n2)cc1 [Compound 3431] | 0.01 to 10
21 | CN(CCCN(C)C(=O)c1ccc(Nc2nc(NC3(c4ccc(Cl)cc4)CC3)nc(OCC(F)(F)F)n2)cc1)C(=O)C(=O)N1CCCCC1 [Compound 3432] | 10 to 1000
22 | CN(CCCN(C)C(=O)c1ccc(Nc2nc(NC3(c4ccc(Cl)cc4)CC3)nc(OCC(F)(F)F)n2)cc1)C(=O)C(=O)N1CCc2ccccc2C1 [Compound 3433] | 10 to 1000
23 | Cc1ccc(NC(=O)C(=O)N(C)CCCN(C)C(=O)c2ccc(Nc3nc(NC4(c5ccc(Cl)cc5)CC4)nc(OCC(F)(F)F)n3)cc2)cc1Cl [Compound 3434] | 0.01 to 10
24 | CC(C)(CNC(=O)C(=O)Nc1ccc(C(F)(F)F)cc1C#N)CNC(=O)c1ccc(Nc2nc(NC3(c4ccc(Cl)cc4)CC3)nc(OCC(F)(F)F)n2)cc1 [Compound 3435] | 0.01 to 10
25 | CC(C)(CNC(=O)c1ccc(Nc2nc(NC3(c4ccc(Cl)cc4)CC3)nc(OCC(F)(F)F)n2)cc1)NC(=O)C(=O)NC1CCCCC1 [Compound 3436] | 0.01 to 10
26 | CC(C)(CNC(=O)c1ccc(Nc2nc(NC3(c4ccc(Cl)cc4)CC3)nc(OCC(F)(F)F)n2)cc1)NC(=O)C(=O)Nc1nccs1 [Compound 3437] | 0.01 to 10
27 | CC(C)(CNC(=O)c1ccc(Nc2nc(NC3(c4ccc(Cl)cc4)CC3)nc(OCC(F)(F)F)n2)cc1)NC(=O)C(=O)Nc1ccc(F)cc1F [Compound 3438] | 0.01 to 10
28 | CC(C)(CNC(=O)c1ccc(Nc2nc(NC3(c4ccc(Cl)cc4)CC3)nc(OCC(F)(F)F)n2)cc1)NC(=O)C(=O)N1CCCCC1 [Compound 3439] | 0.01 to 10
29 | CC(C)(CNC(=O)c1ccc(Nc2nc(NC3(c4ccc(Cl)cc4)CC3)nc(OCC(F)(F)F)n2)cc1)NC(=O)C(=O)N1CCc2ccccc2C1 [Compound 3440] | 0.01 to 10
30 | Cc1ccc(NC(=O)C(=O)NC(C)(C)CNC(=O)c2ccc(Nc3nc(NC4(c5ccc(Cl)cc5)CC4)nc(OCC(F)(F)F)n3)cc2)cc1Cl [Compound 3441] | 0.01 to 10
31 | CC(C)CNC(=O)C(=O)NC(C)(C)CNC(=O)c1ccc(Nc2nc(NC3(c4ccc(Cl)cc4)CC3)nc(OCC(F)(F)F)n2)cc1 [Compound 3442] | 0.01 to 10
32 | CN(CCCNC(=O)c1ccc(Nc2nc(NC3(c4ccc(Cl)cc4)CC3)nc(OCC(F)(F)F)n2)cc1)C(=O)C(=O)Nc1cccc(F)c1 [Compound 3443] | 0.01 to 10

Row | SMILES | EC50 [nM]
33 | CN(CCCNC(=O)c1ccc(Nc2nc(NC3(c4ccc(Cl)cc4)CC3)nc(OCC(F)(F)F)n2)cc1)C(=O)C(=O)NCc1ccc(F)cc1 [Compound 3444] | 0.01 to 10
34 | Cc1ccc(NC(=O)C(=O)N(C)CCCNC(=O)c2ccc(Nc3nc(NC4(c5ccc(Cl)cc5)CC4)nc(OCC(F)(F)F)n3)cc2)cc1 [Compound 3445] | 0.01 to 10
35 | Cc1cc(NC(=O)C(=O)N(C)CCCNC(=O)c2ccc(Nc3nc(NC4(c5ccc(Cl)cc5)CC4)nc(OCC(F)(F)F)n3)cc2)no1 [Compound 3446] | 0.01 to 10
36 | CN(CCCNC(=O)c1ccc(Nc2nc(NC3(c4ccc(Cl)cc4)CC3)nc(OCC(F)(F)F)n2)cc1)C(=O)C(N)=O [Compound 3447] | 0.01 to 10
37 | CN(CCCNC(=O)c1ccc(Nc2nc(NC3(c4ccc(Cl)cc4)CC3)nc(OCC(F)(F)F)n2)cc1)C(=O)C(=O)Nc1ccc(F)cc1 [Compound 3448] | 0.01 to 10
38 | CN(CCCNC(=O)c1ccc(Nc2nc(NC3(c4ccc(Cl)cc4)CC3)nc(OCC(F)(F)F)n2)cc1)C(=O)C(=O)Nc1ccc(F)cc1F [Compound 3449] | 0.01 to 10
39 | CN(CCCNC(=O)c1ccc(Nc2nc(NC3(c4ccc(Cl)cc4)CC3)nc(OCC(F)(F)F)n2)cc1)C(=O)C(=O)Nc1ccccc1 [Compound 3450] | 0.01 to 10
40 | CN(CCCNC(=O)c1ccc(Nc2nc(NC3(c4ccc(Cl)cc4)CC3)nc(OCC(F)(F)F)n2)cc1)C(=O)C(=O)Nc1cc(F)cc(F)c1 [Compound 3451] | 0.01 to 10
41 | CC(C)(CNC(=O)C(=O)Nc1ccc(Cl)cc1F)CNC(=O)c1ccc(Nc2nc(NC3(c4ccc(Cl)cc4)CC3)nc(OCC(F)(F)F)n2)cc1 [Compound 3452] | 0.01 to 10
42 | CC(C)(CNC(=O)C(=O)Nc1ccc(Cl)cc1Cl)CNC(=O)c1ccc(Nc2nc(NC3(c4ccc(Cl)cc4)CC3)nc(OCC(F)(F)F)n2)cc1 [Compound 3453] | 0.01 to 10
43 | Cc1ccc(NC(=O)C(=O)NCC(C)(C)CNC(=O)c2ccc(Nc3nc(NC4(c5ccc(Cl)cc5)CC4)nc(OCC(F)(F)F)n3)cc2)c(C#N)c1 [Compound 3454] | 0.01 to 10
44 | Cc1ccc(NC(=O)C(=O)NCC(C)(C)CNC(=O)c2ccc(Nc3nc(NC4(c5ccc(Cl)cc5)CC4)nc(OCC(F)(F)F)n3)cc2)c(C(F)(F)F)c1 [Compound 3455] | 0.01 to 10
45 | COc1ccc(NC(=O)C(=O)NCC(C)(C)CNC(=O)c2ccc(Nc3nc(NC4(c5ccc(Cl)cc5)CC4)nc(OCC(F)(F)F)n3)cc2)c(C(F)(F)F)c1 [Compound 3456] | 0.01 to 10
46 | CC(C)(CNC(=O)C(=O)Nc1ccc(F)cc1C(F)(F)F)CNC(=O)c1ccc(Nc2nc(NC3(c4ccc(Cl)cc4)CC3)nc(OCC(F)(F)F)n2)cc1 [Compound 3457] | 0.01 to 10
47 | NC(=O)C(=O)NCC(O)CNC(=O)c1ccc(Nc2nc(NC3(c4ccc(Cl)cc4)CC3)nc(OCC(F)(F)F)n2)cc1 (stereo not drawn) [Compound 3458] | 0.01 to 10
48 | O=C(Cc1ccc(F)cc1F)C(=O)NCC(O)CNC(=O)c1ccc(Nc2nc(NC3(c4ccc(Cl)cc4)CC3)nc(OCC(F)(F)F)n2)cc1 (stereo not drawn) [Compound 3459] | 0.01 to 10
49 | O=C(NCC(O)CNC(=O)c1ccc(Nc2nc(NC3(c4ccc(Cl)cc4)CC3)nc(OCC(F)(F)F)n2)cc1)C(=O)Nc1ccccc1 (stereo not drawn) [Compound 3460] | 0.01 to 10
50 | O=C(NCC(O)CNC(=O)c1ccc(Nc2nc(NC3(c4ccc(Cl)cc4)CC3)nc(OCC(F)(F)F)n2)cc1)C(=O)Nc1cc(F)cc(F)c1 (stereo not drawn) [Compound 3461] | 0.01 to 10
51 | O=C(Cc1nccs1)C(=O)NCC(O)CNC(=O)c1ccc(Nc2nc(NC3(c4ccc(Cl)cc4)CC3)nc(OCC(F)(F)F)n2)cc1 (stereo not drawn) [Compound 3462] | 0.01 to 10
52 | O=C(NCC(O)CNC(=O)c1ccc(Nc2nc(NC3(c4ccc(Cl)cc4)CC3)nc(OCC(F)(F)F)n2)cc1)C(=O)NC1CCCCC1 (stereo not drawn) [Compound 3463] | 0.01 to 10
53 | O=C(NCC(O)CNC(=O)c1ccc(Nc2nc(NC3(c4ccc(Cl)cc4)CC3)nc(OCC(F)(F)F)n2)cc1)C(=O)N1CCc2ccccc2C1 (stereo not drawn) [Compound 3464] | 0.01 to 10
54 | O=C(NCC(O)CNC(=O)c1ccc(Nc2nc(NC3(c4ccc(Cl)cc4)CC3)nc(OCC(F)(F)F)n2)cc1)C(=O)N1CCCCC1 (stereo not drawn) [Compound 3465] | 0.01 to 10
55 | Cc1ccc(NC(=O)C(=O)NCC(O)CNC(=O)c2ccc(Nc3nc(NC4(c5ccc(Cl)cc5)CC4)nc(OCC(F)(F)F)n3)cc2)cc1Cl (stereo not drawn) [Compound 3466] | 0.01 to 10
56 | CC(C)CNC(=O)C(=O)NCC(O)CNC(=O)c1ccc(Nc2nc(NC3(c4ccc(Cl)cc4)CC3)nc(OCC(F)(F)F)n2)cc1 (stereo not drawn) [Compound 3467] | 0.01 to 10
57 | CC(CNC(=O)C(=O)Nc1nccs1)CNC(=O)c1ccc(Nc2nc(NC3(c4ccc(Cl)cc4)CC3)nc(OCC(F)(F)F)n2)cc1 (stereo not drawn) [Compound 3468] | 0.01 to 10
